Experimental data: ChEMBL document CHEMBL2429853, “Gardovatine, a novel Strychnos-Strychnos bisindole alkaloid with cytotoxicity from Gardneria oveta” (Bioorg Med Chem Lett, 2013)
pIC50: −log10 of the molar value.

Tests used:
Assay type in all cases: functional, cell-based
SMMC-7721 = experiment: Cytotoxicity against human SMMC7721 after 48 hrs by MTT assay; conditions: SMMC-7721, 48 h
A549 = experiment: Cytotoxicity against human A549 after 48 hrs by MTT assay; conditions: A549, 48 h
SW480 = experiment: Cytotoxicity against human SW480 after 48 hrs by MTT assay; conditions: SW480, 48 h
HL-60 = experiment: Cytotoxicity against human HL60 after 48 hrs by MTT assay; conditions: HL-60, 48 h
MCF7 = experiment: Cytotoxicity against human MCF7 after 48 hrs by MTT assay; conditions: MCF7, 48 h

Compound	pIC50 (SMMC-7721)	pIC50 (A549)	pIC50 (SW480)	pIC50 (HL-60)	pIC50 (MCF7)
C/C=C1/CN2CCc3c4n(c5ccccc35)/C=C3/[C@H]5C[C@@H]6N(CC[C@@]67c6ccccc6N(/C=C\4[C@H]1CC2=O)[C@@H]37)C/C5=C/C [(15S,19E,2'S,3'S,7'R,15'S,19'E)-GARDOVATINE]	4.98	4.85	4.79	5.01	4.86
C/C=C1/CN2CC[C@]34c5ccccc5N5[C@H]3[C@H]([C@H]3O[C@]6([C@@H]7N3c3ccccc3[C@@]73CCN7C/C(=C/C)[C@@H]6C[C@H]73)[C@H]5OC)[C@H]1C[C@H]24 [DIVARINE]	5.49	5.49	5.80	5.92	5.52
